Experiments:
[1] = Lipid nanoparticle size and polydispersity index by dynamic light scattering (Malvern Zetasizer); format: physicochemical; settings: hEPO mRNA LNP, Process A, Cationic Lipid:DMG-PEG2000:Cholesterol:DOPE 40:1.5:28.5:30 mol %, N/P 4
Description: The lipid nanoparticles in the examples of the present invention were formulated using Process A of WO 2018/089801 (see, e.g., Example 1 and FIG. 1 of WO 2018/089801). Process A (“A”) relates to a conventional method of encapsulating mRNA by mixing mRNA with a mixture of lipids, without first pre-forming the lipids into lipid nanoparticles. In an exemplary process, an ethanolic solution of a mixture of lipids (cationic lipid, phosphatidylethanolamine, cholesterol, and polyethylene glycol-lipid) at a fixed lipid to mRNA ratio were combined with an aqueous buffered solution of target mRNA at an acidic pH under controlled conditions to yield a suspension of uniform LNPs. After ultrafiltration and diafiltration into a suitable diluent system, the resulting nanoparticle suspensions were diluted to final concentration, filtered, and stored frozen at −80° C. until use.
(§1) Lipid nanoparticle formulations of Table 1 were prepared by Process A. All of the lipid nanoparticle formulations comprised hEPO mRNA and the different lipids (Cationic Lipid: DMG-PEG2000: Cholesterol: DOPE) in mol % ratios of 40:1.5:28.5:30 (Cationic Lipid: DMG-PEG2000: Cholesterol: DOPE).
The Polydispersity Index (Pdl) of lipid nanoparticles can be determined by diluting the formulation in 10% trehalose at about 0.1 mg/ml mRNA concentration and then measuring the size on Malvern zetasizer. The lipid nanoparticle size can be obtained with Malvern Zetasizer Nano-ZS.
Dynamic light scattering (DLS) measurements were performed using a Malvern Instruments Zetasizer with a backscattering detector angle of 173° and a 4-mW, 633-nm He—Ne laser (Worcestershire, UK). The samples were analyzed by diluting in 10% Trehalose and measuring the size and Poly dispersity Index (PDI) in an optical grade polystyrene cuvette.

[2] = mRNA encapsulation efficiency of lipid nanoparticles (RiboGreen assay); format: physicochemical; settings: hEPO mRNA LNP, Process A, Cationic Lipid:DMG-PEG2000:Cholesterol:DOPE 40:1.5:28.5:30 mol %, N/P 4
Description: In embodiments, the lipid nanoparticle encapsulates a nucleic acid, optionally an mRNA encoding a peptide or protein. In embodiments, the lipid nanoparticle encapsulates an mRNA encoding a peptide or protein, optionally for use in a vaccine. In embodiments, the peptide is an antigen. As used herein, the phrase “encapsulation percentage” refers to the fraction of therapeutic agent (e.g. mRNA) that is effectively encapsulated within a liposomal-based vehicle (e.g. a lipid nanoparticle) relative to the initial fraction of therapeutic agent present in the lipid phase. In embodiments, the lipid nanoparticles have an encapsulation percentage for mRNA of at least 50%. In embodiments, the lipid nanoparticles have an encapsulation percentage for mRNA of at least 55%. In embodiments, the lipid nanoparticles have an encapsulation percentage for mRNA of at least 60%. In embodiments, the lipid nanoparticles have an encapsulation percentage for mRNA of at least 65%. In embodiments, the lipid nanoparticles have an encapsulation percentage for mRNA of at least 70%. In embodiments, the lipid nanoparticles have an encapsulation percentage for mRNA of at least 75%. In embodiments, the lipid nanoparticles have an encapsulation percentage for mRNA of at least 80%. In embodiments, the lipid nanoparticles have an encapsulation percentage for mRNA of at least 85%. In embodiments, the lipid nanoparticles have an encapsulation percentage for mRNA of at least 90%. In embodiments, the lipid nanoparticles have an encapsulation percentage for mRNA of at least 95%. In embodiments, the encapsulation percentage is calculated by performing the Ribogreen assay (Invitrogen) with and without the presence of 0.1% Triton-X 100.
as §1
The RiboGreen Assay is a fluorescence-based method for the determination of mRNA concentration (Total and Free) and % encapsulation using Quant-iT™ RiboGreen® RNA reagent in mRNA containing lipid nanoparticles.
• To each of the standards (Blank, mRNA-1, mRNA-2. mRNA-3, mRNA-4, mRNA-5) and Samples (free mRNA and total mRNA), add 1.0 mL of 200-fold Ribogreen Reagent Solution and gently mix by inversion. This is a 2× Dilution. • Add 200 μL of each standard and sample in triplicate using the reverse pipetting technique in a 96-well Costar Black with Clear Background Plate. Ensure no bubbles are present in the plate before the fluorescence reading. • Read the fluorescence signal using the below instrument parameters: • Read Type: Fluorescence, Bottom Read • Excitation: 485 nm; Cut-off: 515 nm; Emission: 530 nm • Plate Type: 96-well Costar Black with Clear Background
The average fluorescence from each calibration standard is plotted against the concentration to generate a linear calibration curve using the MS Excel software. The coefficient of determination (R^2) of calibration curve must be R^2>0.99.
[formula] • Where, • Y=average fluorescence value • m: slope • x: concentration (pg/mL) • c: y-intercept • Using the linear equation, calculate the concentration of free and total mRNA concentration in the test sample by replacing the y value in the equation with the average fluorescence value of each respective sample • Once the concentration is determined, the actual concentration in the sample can be back-calculated by multiplying the concentration in the test sample with the dilution factor (DF) as follows:
[formula] [formula] • Concentration of encapsulated mRNA can be determined by subtracting the concentration of free mRNA from the total mRNA. • % Encapsulation can then be calculated by taking the ratio of encapsulated mRNA over total mRNA and multiplying the result with 100.

BALB/cJ mice = test: Delivery of hEPO mRNA by intramuscular administration of LNPs; serum hEPO by ELISA; format: in vivo, Mouse; settings: for hEPO 24 Hr (ng/ml) Mean: mouse serum 24 hours post single IM injection of 0.1 μg hEPO mRNA LNP
How it was run: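 Female BALB/cJ mice, 6-8 weeks, given a single IM injection of 0.1 μg hEPO mRNA LNPs into right gastrocnemius under light isoflurane. Serum taken at 6 and 24 h post dose and terminally by cardiac puncture; hEPO measured by ELISA ("shaker" protocol), samples diluted 1:40 to 1:100.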

[3] = system: A/Tasmania/503/2020 (H3N2) virus; test: Influenza titer: HAI assay on sera of mice immunized IM with Modified Tasmania H3 mRNA-lipid nanoparticles; settings: Balb/c mice, 0.4 ug per mouse Modified Tasmania H3 mRNA-LNP IM on day 0 and day 21
[4] = Table 2, isosorbide-derived lipids, mouse serum 6 hours post single IM injection of 0.1 μg hEPO mRNA LNP
[5] = Table 2, isosorbide-derived lipids
[6] = Table 4, further lipids, mouse serum 6 hours post IM injection of hEPO mRNA LNP as in example 3

Structure (SMILES) | Polydispersity Index (PDI) [1] | Size (nm) [1] | Encapsulation efficiency (EE) % [2] | hEPO 6 Hr (ng/mL) Mean (BALB/cJ mice; Table 3, isomannide-derived lipids, mouse serum 6 hours post single IM injection of 0.1 μg hEPO mRNA LNP) | hEPO 24 Hr (ng/ml) Mean (BALB/cJ mice; Table 3, isomannide-derived lipids) | HAI GMT [3] | hEPO 6 Hr (ng/ml) Mean (BALB/cJ mice; [4]) | hEPO 24 Hr (ng/ml) Mean (BALB/cJ mice; [5]) | hEPO 6 Hr (ng/ml) Mean (BALB/cJ mice; [6])
CCCCCCCCCCC(O)CN(CCCC(=O)O[C@H]1CO[C@H]2[C@@H]1OC[C@H]2OC(=O)CCCN(CC(O)CCCCCCCCCC)CC(O)CCCCCCCCCC)CC(O)CCCCCCCCCC (stereo in doubt) [Compound 3] | 0.11 | 95 nm | 86% | 37.4 ng/mL | 18.9 ng/mL | 320 |  |  | 
CCCCCCCCCCC(O)CN(CCCC(=O)O[C@H]1CO[C@H]2[C@@H]1OC[C@H]2OC(=O)CCCN(CC(O)CCCCCCCCCC)CC(O)CCCCCCCCCC)CC(O)CCCCCCCCCC (stereo partly shown) [Compound 24] | 0.11 | 88 nm | 83% |  |  | 190 | 30.2 ng/mL | 19.4 ng/mL | 
CCCCCCCCCCC(O)CN(CCCOC(=O)O[C@H]1CO[C@H]2[C@@H]1OC[C@H]2OC(=O)OCCCN(CC(O)CCCCCCCCCC)CC(O)CCCCCCCCCC)CC(O)CCCCCCCCCC (stereo partly shown) [Compound 40] | 0.11 | 84 nm | 66% |  |  |  | 11.9 ng/mL | 7 ng/mL | 
CCCCCCCCC(O)CN(CCCC(=O)N[C@H]1CO[C@H]2[C@@H]1OC[C@@H]2NC(=O)CCCN(CC(O)CCCCCCCC)CC(O)CCCCCCCC)CC(O)CCCCCCCC (stereo partly shown) [Compound 51] | 0.12 | 71 nm | 81% |  |  |  |  |  | 47.6 ng/mL
CCCCCCCCCCC(O)CN(CCCC(=O)N[C@H]1CO[C@H]2[C@@H]1OC[C@@H]2NC(=O)CCCN(CC(O)CCCCCCCCCC)CC(O)CCCCCCCCCC)CC(O)CCCCCCCCCC (stereo partly shown) [Compound 52] | 0.14 | 74 nm | 95% |  |  |  |  |  | 72.7 ng/mL
CCCCCCCCCCCCC(O)CN(CCCOC(=O)N[C@H]1CO[C@H]2[C@@H]1OC[C@@H]2NC(=O)OCCCN(CC(O)CCCCCCCCCCCC)CC(O)CCCCCCCCCCCC)CC(O)CCCCCCCCCCCC (stereo partly shown) [Compound 53] | 0.2 | 97 nm | 96% |  |  |  |  |  | 72.0 ng/mL
CCCCCCCCCCC(O)CN(CCCSC(=O)N[C@H]1CO[C@H]2[C@@H]1OC[C@@H]2NC(=O)SCCCN(CC(O)CCCCCCCCCC)CC(O)CCCCCCCCCC)CC(O)CCCCCCCCCC (stereo partly shown) [Compound 54] | 1.6 | 79 nm | 87% |  |  |  |  |  | 12.0 ng/mL
CCCCCCCCCCCCC(O)CN(CCCC(=O)N[C@H]1CO[C@H]2[C@@H]1OC[C@@H]2NC(=O)CCCN(CC(O)CCCCCCCCCCCC)CC(O)CCCCCCCCCCCC)CC(O)CCCCCCCCCCCC (stereo partly shown) [Compound 55] | 0.15 | 101 nm | 99% |  |  |  |  |  | 30.9 ng/mL

— patent publication US20260224486A1, “DIANHYDROHEXITOL BASED IONIZABLE LIPIDS FOR NUCLEIC ACID DELIVERY” (SANOFI PASTEUR INC., priority 2023, published 2026)
